Test results: PubChem BioAssay (NCI)
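A five-concentration, 48-hour dose response in 96-well plates underlies each endpoint, interpolated linearly between surrounding concentrations. TGI denotes the concentration required for complete inhibition of growth.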

Columns and labels:
Test in all cases: growth of human tumour cells (NCI), 48 h
786-0 renal = system: 786-0 renal
A498 renal = system: A498 renal
A549 NSCLC = system: A549 NSCLC
ACHN renal = system: ACHN renal
BT-549 breast = system: BT-549 breast
CAKI-1 renal = system: CAKI-1 renal
CCRF-CEM leukemia = system: CCRF-CEM leukemia
COLO 205 colon = system: COLO 205 colon
DU-145 prostate = system: DU-145 prostate
EKVX NSCLC = system: EKVX NSCLC
HCT-116 colon = system: HCT-116 colon
HCT-15 colon = system: HCT-15 colon
HL-60(TB) leukemia = system: HL-60(TB) leukemia
HOP-62 NSCLC = system: HOP-62 NSCLC
HOP-92 NSCLC = system: HOP-92 NSCLC
HT29 colon = system: HT29 colon
IGROV1 ovarian = system: IGROV1 ovarian
K-562 leukemia = system: K-562 leukemia
KM12 colon = system: KM12 colon
LOX IMVI melanoma = system: LOX IMVI melanoma
M14 melanoma = system: M14 melanoma
MALME-3M melanoma = system: MALME-3M melanoma
MCF7 breast = system: MCF7 breast
MDA-MB-231 breast = system: MDA-MB-231 breast
MDA-MB-435 = system: MDA-MB-435
MDA-N = system: MDA-N
MOLT-4 leukemia = system: MOLT-4 leukemia
NCI-H226 lung = system: NCI-H226 lung
NCI-H23 lung = system: NCI-H23 lung
NCI-H460 lung = system: NCI-H460 lung
NCI-H522 lung = system: NCI-H522 lung
NCI/ADR-RES ovarian = system: NCI/ADR-RES ovarian
OVCAR-4 ovarian = system: OVCAR-4 ovarian
OVCAR-5 ovarian = system: OVCAR-5 ovarian
OVCAR-8 ovarian = system: OVCAR-8 ovarian
PC-3 prostate = system: PC-3 prostate
RPMI-8226 leukemia = system: RPMI-8226 leukemia
RXF 393 renal = system: RXF 393 renal
SF-268 CNS = system: SF-268 CNS
SF-295 CNS = system: SF-295 CNS
SF-539 CNS = system: SF-539 CNS
SK-MEL-2 melanoma = system: SK-MEL-2 melanoma
SK-MEL-28 melanoma = system: SK-MEL-28 melanoma
SK-MEL-5 melanoma = system: SK-MEL-5 melanoma
SK-OV-3 ovarian = system: SK-OV-3 ovarian
SN12C renal = system: SN12C renal
SNB-19 CNS = system: SNB-19 CNS
SNB-75 CNS = system: SNB-75 CNS
SR leukemia = system: SR leukemia
SW-620 colon = system: SW-620 colon
T-47D breast = system: T-47D breast
TK-10 renal = system: TK-10 renal
U251 CNS = system: U251 CNS
UACC-257 melanoma = system: UACC-257 melanoma
UACC-62 melanoma = system: UACC-62 melanoma
UO-31 renal = system: UO-31 renal
HCC-2998 colon = system: HCC-2998 colon
HS 578T breast = system: HS 578T breast
OVCAR-3 ovarian = system: OVCAR-3 ovarian

Measured: TGI

CC(=NC1CCCCC1)c1ccccc1O
> 100 µM: 786-0 renal | A498 renal | A549 NSCLC | ACHN renal | BT-549 breast | CAKI-1 renal | CCRF-CEM leukemia | COLO 205 colon | DU-145 prostate | EKVX NSCLC | HCT-116 colon | HCT-15 colon | HL-60(TB) leukemia | HOP-62 NSCLC | HOP-92 NSCLC | HT29 colon | IGROV1 ovarian | K-562 leukemia | KM12 colon | LOX IMVI melanoma | M14 melanoma | MALME-3M melanoma | MCF7 breast | MDA-MB-231 breast | MDA-MB-435 | MDA-N | MOLT-4 leukemia | NCI-H226 lung | NCI-H23 lung | NCI-H460 lung | NCI-H522 lung | NCI/ADR-RES ovarian | OVCAR-4 ovarian | OVCAR-5 ovarian | OVCAR-8 ovarian | PC-3 prostate | RPMI-8226 leukemia | RXF 393 renal | SF-268 CNS | SF-295 CNS | SF-539 CNS | SK-MEL-2 melanoma | SK-MEL-28 melanoma | SK-MEL-5 melanoma | SK-OV-3 ovarian | SN12C renal | SNB-19 CNS | SNB-75 CNS | SR leukemia | SW-620 colon | T-47D breast | TK-10 renal | U251 CNS | UACC-257 melanoma | UACC-62 melanoma | UO-31 renal

CCN(CC)c1ccc2cc(-c3nc(-c4ccccc4)n[nH]3)c(=O)oc2c1
73.8 µM: CAKI-1 renal
57.9 µM: IGROV1 ovarian
22 µM: HOP-62 NSCLC
61.5 µM: SNB-19 CNS
88.7 µM: EKVX NSCLC
70.1 µM: PC-3 prostate
> 100 µM: A549 NSCLC | ACHN renal | CCRF-CEM leukemia | COLO 205 colon | HCC-2998 colon | HCT-116 colon | HCT-15 colon | HL-60(TB) leukemia | HS 578T breast | HT29 colon | K-562 leukemia | KM12 colon | LOX IMVI melanoma | M14 melanoma | MALME-3M melanoma | MCF7 breast | MDA-MB-435 | MDA-N | MOLT-4 leukemia | NCI-H460 lung | NCI-H522 lung | NCI/ADR-RES ovarian | OVCAR-3 ovarian | OVCAR-5 ovarian | RPMI-8226 leukemia | SF-268 CNS | SF-295 CNS | SK-MEL-2 melanoma | SK-MEL-28 melanoma | SK-MEL-5 melanoma | SR leukemia | SW-620 colon | UACC-257 melanoma | UACC-62 melanoma
40.4 µM: DU-145 prostate
32.1 µM: 786-0 renal
53.7 µM: OVCAR-4 ovarian
28.7 µM: OVCAR-8 ovarian
20.4 µM: UO-31 renal
44.6 µM: NCI-H23 lung
45.6 µM: SF-539 CNS
39.4 µM: SK-OV-3 ovarian
89.3 µM: BT-549 breast
90.1 µM: A498 renal
96.2 µM: U251 CNS

NC(=O)N/N=C\c1ccccc1OCc1cccc(COc2ccccc2/C=N\NC(N)=O)n1
32.8 µM: MDA-MB-231 breast
51.6 µM: UACC-62 melanoma
85.6 µM: TK-10 renal
31.5 µM: RXF 393 renal
49.9 µM: SK-OV-3 ovarian
55.6 µM: HOP-92 NSCLC
33.8 µM: SF-295 CNS
47.9 µM: SF-539 CNS
47.7 µM: DU-145 prostate
> 100 µM: 786-0 renal | A498 renal | A549 NSCLC | ACHN renal | CAKI-1 renal | CCRF-CEM leukemia | COLO 205 colon | HCC-2998 colon | HCT-116 colon | HCT-15 colon | HL-60(TB) leukemia | HS 578T breast | HT29 colon | IGROV1 ovarian | K-562 leukemia | KM12 colon | LOX IMVI melanoma | M14 melanoma | MALME-3M melanoma | MCF7 breast | MDA-MB-435 | MDA-N | MOLT-4 leukemia | NCI-H226 lung | NCI-H23 lung | NCI-H460 lung | NCI-H522 lung | NCI/ADR-RES ovarian | OVCAR-3 ovarian | OVCAR-4 ovarian | OVCAR-5 ovarian | OVCAR-8 ovarian | PC-3 prostate | RPMI-8226 leukemia | SK-MEL-2 melanoma | SK-MEL-28 melanoma | SK-MEL-5 melanoma | SN12C renal | SNB-19 CNS | SW-620 colon | UACC-257 melanoma | UO-31 renal
27 µM: HOP-62 NSCLC
88.6 µM: SF-268 CNS
81.8 µM: BT-549 breast
69.5 µM: EKVX NSCLC
18.7 µM: U251 CNS

O=c1[nH]c(=S)[nH]c2c1C(c1ccc(Cl)cc1)c1c([nH]c(=S)[nH]c1=O)O2
> 100 µM: 786-0 renal | A498 renal | A549 NSCLC | ACHN renal | BT-549 breast | CAKI-1 renal | CCRF-CEM leukemia | COLO 205 colon | DU-145 prostate | EKVX NSCLC | HCT-116 colon | HCT-15 colon | HL-60(TB) leukemia | HOP-62 NSCLC | HOP-92 NSCLC | HS 578T breast | HT29 colon | IGROV1 ovarian | K-562 leukemia | KM12 colon | LOX IMVI melanoma | M14 melanoma | MALME-3M melanoma | MCF7 breast | MDA-MB-231 breast | MDA-MB-435 | MDA-N | MOLT-4 leukemia | NCI-H226 lung | NCI-H23 lung | NCI-H460 lung | NCI-H522 lung | NCI/ADR-RES ovarian | OVCAR-3 ovarian | OVCAR-4 ovarian | OVCAR-5 ovarian | OVCAR-8 ovarian | PC-3 prostate | RPMI-8226 leukemia | RXF 393 renal | SF-268 CNS | SF-295 CNS | SK-MEL-2 melanoma | SK-MEL-28 melanoma | SK-MEL-5 melanoma | SN12C renal | SNB-19 CNS | SW-620 colon | TK-10 renal | U251 CNS | UACC-257 melanoma | UACC-62 melanoma | UO-31 renal

CCCCNc1nc(N)nc(Nc2ccc(Br)cc2)c1N=O
> 100 µM: 786-0 renal | A549 NSCLC | ACHN renal | BT-549 breast | CCRF-CEM leukemia | COLO 205 colon | DU-145 prostate | EKVX NSCLC | HCC-2998 colon | HCT-116 colon | HCT-15 colon | HL-60(TB) leukemia | HOP-62 NSCLC | HT29 colon | IGROV1 ovarian | K-562 leukemia | KM12 colon | LOX IMVI melanoma | M14 melanoma | MALME-3M melanoma | MCF7 breast | MDA-MB-231 breast | MDA-MB-435 | MDA-N | MOLT-4 leukemia | NCI-H226 lung | NCI-H23 lung | NCI-H460 lung | NCI-H522 lung | NCI/ADR-RES ovarian | OVCAR-3 ovarian | OVCAR-5 ovarian | OVCAR-8 ovarian | PC-3 prostate | RPMI-8226 leukemia | RXF 393 renal | SF-268 CNS | SF-539 CNS | SK-MEL-2 melanoma | SK-MEL-28 melanoma | SK-MEL-5 melanoma | SN12C renal | SNB-19 CNS | SNB-75 CNS | SR leukemia | SW-620 colon | TK-10 renal | U251 CNS | UACC-257 melanoma | UACC-62 melanoma | UO-31 renal
82.8 µM: HS 578T breast
